Earlier results, collected in patent publication US9554577B2, “Herbicidal formulation” (priority 2011, dated 2017).

How the values were obtained:
[1] = chlorinated hydrocarbons and aromatic solvents such as methylene chloride, acetone and xylene

SMILES: CCC(CC)Nc1c([N+](=O)[O-])cc(C)c(C)c1[N+](=O)[O-] [Pendimethalin, n-(1-ethylpropyl)-3,4-dimethyl-2,6-dinitrobenzenamine]
- stability under acidic and alkaline conditions: stable
- solubility in organic solvents [1]: soluble
